According to the supplement of paper PMC11061612:

Assays:
Assay in all cases: Bliss excess, mean over the matrix (fraction); higher = more synergy
[1] = system: SW837 (Colorectal Carcinoma)
Outline: (§1)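 Bliss excess equals the observed combination effect minus the expected value EA + EB − EA·EB, where EA and EB are the effects of each agent alone. Combination Emax is the second-highest inhibition within the matrix. Inhibition was scaled from CellTiter-Glo 2.0 luminescence, with 0 set by vehicle wells and 1 by blank wells, after 72 hours of two-drug dosing of cells plated in 1536-well plates.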

[2] = system: KM12 (Colorectal Carcinoma)
Outline: as §1

[3] = system: MKN28 (Gastric Carcinoma)
Outline: as §1

[4] = system: HDQ-P1 (Breast Carcinoma)
Outline: as §1

[5] = system: SW1417 (Colorectal Carcinoma)
Outline: as §1

[6] = system: KARPAS-45 (T-Lymphoblastic Leukemia)
Outline: as §1

[7] = system: NCI-H1792 (Lung Adenocarcinoma)
Outline: as §1

[8] = system: BFTC-905 (Bladder Carcinoma)
Outline: as §1

[9] = system: CAMA-1 (Breast Carcinoma)
Outline: as §1

TC-71 (Ewing's Sarcoma) = system: TC-71 (Ewing's Sarcoma)
Outline: as §1

[10] = system: K-562 (Chronic Myelogenous Leukemia)
Outline: as §1

[11] = system: GR-ST (B-Lymphoblastic Leukemia)
Outline: as §1

[12] = system: TOV-112D (Ovarian Carcinoma)
Outline: as §1

[13] = system: DND-41 (T-Lymphoblastic Leukemia)
Outline: as §1

[14] = system: TE-6 (Esophageal Squamous Cell Carcinoma)
Outline: as §1

MEL-JUSO (Melanoma) = system: MEL-JUSO (Melanoma)
Outline: as §1

WIL2-NS (Non-Cancerous) = system: WIL2-NS (Non-Cancerous)
Outline: as §1

[15] = system: L-540 (Hodgkin's Lymphoma)
Outline: as §1

[16] = system: EVSA-T (Breast Carcinoma)
Outline: as §1

[17] = system: NCI-H847 (Small Cell Lung Carcinoma)
Outline: as §1

| Compound | Bliss excess [1] | Bliss excess [2] | Bliss excess [3] | Bliss excess [4] | Bliss excess [5] | Bliss excess [6] | Bliss excess [7] | Bliss excess [8] | Bliss excess [9] | Bliss excess (TC-71 (Ewing's Sarcoma)) | Bliss excess [10] | Bliss excess [11] | Bliss excess [12] | Bliss excess [13] | Bliss excess [14] | Bliss excess (MEL-JUSO (Melanoma)) | Bliss excess (WIL2-NS (Non-Cancerous)) | Bliss excess [15] | Bliss excess [16] | Bliss excess [17] |
| --- | --- | --- | --- | --- | --- | --- | --- | --- | --- | --- | --- | --- | --- | --- | --- | --- | --- | --- | --- | --- |
| Cc1c2c(nn1C)CSCc1cc(n(C)n1)CSc1cc(c3ccccc3c1)OCCCc1c(C(=O)O)n(C)c3c-2c(Cl)ccc13 [AZD5991] + CC1(C)CCC(CN2CCN(c3ccc(C(=O)NS(=O)(=O)c4ccc(NCC5CCOCC5)c([N+](=O)[O-])c4)c(Oc4cnc5[nH]ccc5c4)c3)CC2)=C(c2ccc(Cl)cc2)C1 [Venetoclax] (first compound max 1 µM, 7x7, partner max 1 µM) | -0.0169 | 0.0015 | -0.0332 | -0.0129 | -0.0294 | 0.141 | 0.0248 | -0.0016 | 0.0985 | 0.0733 | -0.003 | -0.0484 | 0.0582 | 0.044 | -0.157 | -0.0297 | -0.0302 | 0.0902 | 0.0125 | 0.253 |
| CN(CCO)CC[C@H](CSc1ccccc1)Nc1ccc(S(=O)(=O)NC(=O)c2ccc(N3CCC([C@@H](O)c4ccccc4-c4ccc(Cl)cc4)CC3)cc2)cc1S(=O)(=O)C(F)(F)F [AZD4320] + Cc1cc2ncnn2cc1Nc1ncc2c(n1)n(C1CCOCC1)c(=O)n2C [AZD7648] (first compound max 1 µM, 7x7, partner max 10 µM) | -0.0273 | -0.0234 | -0.036 | -0.0085 | -0.0426 | 0.042 | -0.024 | -0.0375 | -0.0031 | -0.0201 | -0.0332 | -0.0157 | -0.019 | -0.0011 | -0.0059 | -0.0065 | -0.029 | 0.0389 | -0.0237 | 0.0478 |
| Cc1cc2ncnn2cc1Nc1ncc2c(n1)n(C1CCOCC1)c(=O)n2C [AZD7648] + C=CCn1c(=O)c2cnc(Nc3ccc(N4CCN(C)CC4)cc3)nc2n1-c1cccc(C(C)(C)O)n1 [AZD1775] (first compound max 10 µM, partner max 1 µM) | 0.0241 | -0.0388 | 0.0495 | -0.0805 | -0.0328 | 0.0367 | -0.0274 | 0.022 | -0.0068 | 0.055 | 0.0017 | -0.117 | -0.0325 | -0.0109 | -0.07 | 0.0263 | -0.0038 | 0.0106 | -0.024 | -0.0216 |
| Cc1cc2ncnn2cc1Nc1ncc2c(n1)n(C1CCOCC1)c(=O)n2C [AZD7648] + C[C@@H]1COCCN1C2=NC(=NC(=C2)C3(CC3)[S@](=N)(=O)C)C4=C5C=CNC5=NC=C4 [AZD6738] (first compound max 10 µM, 7x7, partner max 10 µM) | -0.0077 | 0.0057 | -0.0081 | -0.0229 | 0.0175 | 0.0129 | -0.0047 | 0.0081 | -0.0631 | 0.041 | -0.0096 | -0.116 | 0.0024 | -0.01 | 0.0697 | 0.0289 | 0.0015 | -0.0031 | 0.0622 | 0.0519 |
| Cc1c2c(nn1C)CSCc1cc(n(C)n1)CSc1cc(c3ccccc3c1)OCCCc1c(C(=O)O)n(C)c3c-2c(Cl)ccc13 [AZD5991] + Cn1cnc2c(F)c(Nc3ccc(Br)cc3Cl)c(C(=O)NOCCO)cc21 [Selumetinib] (first compound max 1 µM, 7x7, partner max 3 µM) | 0.0024 | -0.0063 | -0.0063 | 0.0002 | -0.0015 | 0.011 | 0.0347 | 0.0136 | -0.035 | 0.093 | 0.0393 | -0.0495 | 0.0038 | 0.021 | 0.0043 | 0.0046 | -0.0263 | 0.0007 | 0.0136 | 0.042 |
| CN(CCO)CC[C@H](CSc1ccccc1)Nc1ccc(S(=O)(=O)NC(=O)c2ccc(N3CCC([C@@H](O)c4ccccc4-c4ccc(Cl)cc4)CC3)cc2)cc1S(=O)(=O)C(F)(F)F [AZD4320] + C[C@@H]1COCCN1C2=NC(=NC(=C2)C3(CC3)[S@](=N)(=O)C)C4=C5C=CNC5=NC=C4 [AZD6738] (first compound max 1 µM, 7x7, partner max 10 µM) | -0.0618 | -0.0272 | -0.0528 | 0.0268 | -0.0757 | -0.0069 | -0.0647 | -0.0286 | -0.0016 | 0.075 | -0.0245 | -0.0413 | 0.0134 | -0.0028 | -0.0927 | -0.0159 | -0.0004 | 0.0082 | -0.0105 | -0.0091 |
| CCN(CCO)CCCOc1ccc2c(Nc3cc(CC(=O)Nc4cccc(F)c4)[nH]n3)ncnc2c1 [AZD2811] + C=CCn1c(=O)c2cnc(Nc3ccc(N4CCN(C)CC4)cc3)nc2n1-c1cccc(C(C)(C)O)n1 [AZD1775] (first compound max 1 µM, partner max 1 µM) | 0.0033 | -0.0092 | -0.0954 | -0.0186 | -0.0654 | -0.0766 | -0.0328 | 0.0468 | -0.0328 | 0.0744 | 0.0526 | -0.0338 | 0.105 | 0.0198 | -0.0367 | 0.0131 | 0.0117 | 0.0772 | -0.0073 | -0.0091 |
